Data: patent US11168069B2, “Heterocyclylsulfonyl-substituted pyridines and their use in the treatment of cancer” (Oblique Therapeutics AB, priority 2017, dated 2021)

Columns and labels:
MDA-MB-231 cells = assay: Breast cancer cell viability assay (Alamar Blue); format: cell-based; settings: Homo sapiens, 72 hrs, 10% FBS media containing 25 nM selenite
Description: MDA-MB-231 cells were plated 2000 cells/well in 96-well black optical plates in the presence of 10% FBS media containing 25 nM selenite. The following day cells were treated with various concentrations of compounds (0.1% DMSO final) and incubated for 72 hrs. After the incubation Alamar Blue reagent was added to each well and incubated for additional 3 hrs. Fluorescence was read ex:530 nm/em:590 nm, and percent of viability was determined using DMSO vehicle and no cell (blank) controls.

MDA-MB-468 = assay: Cancer cell viability assay (MTT), MDA-MB-468; format: cell-based; settings: Homo sapiens, 72 hrs, 10% FBS media
Description: (§1) Breast cancer and glioblastoma cell lines were plated 4000 cells/well in 96-well plates in the presence of 10% FBS media. The following day cells were treated with various concentrations of example compounds (0.1% DMSO final) and incubated for 72 hrs. After the incubation An MTT assay was performed to access cell viability. Percent of viability was determined using DMSO vehicle and no cell (blank) controls.

U-87 MG = assay: Cancer cell viability assay (MTT), U-87 MG; format: cell-based; settings: Homo sapiens, 72 hrs, 10% FBS media
Description: as §1

[1] = molecular target: recombinant thioredoxin reductase 1 (TrxR1) (Homo sapiens (Human), UniProt Q16881); assay: Inhibition of recombinant TrxR1 (DTNB assay); format: biochemical; settings: 30 nM TrxR1, 250 μM NADPH, 15 minutes incubation, O.D. 412 nm, read-out: TrxR Assay IC50
Description: (§2) Small molecule inhibition of recombinant thioredoxin reductase 1 (TrxR1) and gluthathione reductase (GR) was examined in 96-well plate format. 30 nM TrxR1 was incubated in the presence of 250 μM NADPH, 0.1 mg/ml BSA, and various concentrations of compound (1% DMSO final) in 50 mM Tris (pH 7.5) and 2 mM EDTA buffer for 15 minutes. Following the incubation period, 2 mM DTNB was added to each well and the change in O.D. at 412 nm was followed. Percent activity was determined using DMSO vehicle and no TrxR1 (blank) controls. 2 nM GR was incubated in the presence of 250 μM NADPH, 0.1 mg/ml BSA, and various concentrations of compounds (1% DMSO final) in 50 mM Tris (pH 7.5) and 2 mM EDTA buffer for 15 minutes. Following the incubation period, 1 mM GSSG was added to each well and the change in O.D. at 340 nm was followed. Percent activity was determined using DMSO vehicle and no GR (blank) controls.

MDA-MB-231 = assay: Cancer cell viability assay (MTT), MDA-MB-231; format: cell-based; settings: Homo sapiens, 72 hrs, 10% FBS media
Description: as §1

[2] = molecular target: recombinant gluthathione reductase (GR) (Homo sapiens (Human), UniProt P00390); assay: Inhibition of recombinant GR (GSSG assay); format: biochemical; settings: 2 nM GR, 250 μM NADPH, 15 minutes incubation, O.D. 340 nm
Description: as §2

Sequence of recombinant thioredoxin reductase 1 (TrxR1) (Q16881 151-649): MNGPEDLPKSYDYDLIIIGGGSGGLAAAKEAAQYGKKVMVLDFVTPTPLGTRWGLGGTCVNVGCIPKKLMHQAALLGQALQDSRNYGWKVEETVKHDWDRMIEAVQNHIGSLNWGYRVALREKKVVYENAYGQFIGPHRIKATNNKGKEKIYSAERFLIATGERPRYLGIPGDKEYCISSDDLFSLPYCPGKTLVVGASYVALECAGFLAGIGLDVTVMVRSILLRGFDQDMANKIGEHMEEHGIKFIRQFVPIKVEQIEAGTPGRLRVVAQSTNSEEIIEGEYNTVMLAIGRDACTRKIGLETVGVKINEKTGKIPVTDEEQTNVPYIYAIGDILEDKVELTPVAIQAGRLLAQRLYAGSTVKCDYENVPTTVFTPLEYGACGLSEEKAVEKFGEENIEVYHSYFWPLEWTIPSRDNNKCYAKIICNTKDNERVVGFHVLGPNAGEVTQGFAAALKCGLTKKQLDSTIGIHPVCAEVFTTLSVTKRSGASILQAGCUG
Sequence of recombinant gluthathione reductase (GR) (P00390 44-522): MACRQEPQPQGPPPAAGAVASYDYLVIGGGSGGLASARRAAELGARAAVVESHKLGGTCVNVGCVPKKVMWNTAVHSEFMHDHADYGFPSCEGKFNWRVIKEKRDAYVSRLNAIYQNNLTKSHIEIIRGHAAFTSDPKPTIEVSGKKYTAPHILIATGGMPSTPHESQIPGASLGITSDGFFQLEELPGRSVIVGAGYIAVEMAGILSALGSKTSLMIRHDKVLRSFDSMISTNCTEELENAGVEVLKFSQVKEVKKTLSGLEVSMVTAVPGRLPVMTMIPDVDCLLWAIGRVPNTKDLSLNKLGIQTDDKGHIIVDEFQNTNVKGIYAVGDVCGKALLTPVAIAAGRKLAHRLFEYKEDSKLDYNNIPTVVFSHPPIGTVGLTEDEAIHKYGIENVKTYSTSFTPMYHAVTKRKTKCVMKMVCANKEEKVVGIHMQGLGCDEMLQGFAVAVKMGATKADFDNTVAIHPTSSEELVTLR

| IC50 (MDA-MB-231 cells) [µM] | IC50 (MDA-MB-468) [µM] | IC50 (U-87 MG) [µM] | IC50 [1] [µM] | IC50 (MDA-MB-231) [µM] | IC50 [2] [µM] | SMILES |
| --- | --- | --- | --- | --- | --- | --- |
| 4.53 | 4.14 | 8.89 | 0.093 | 8.94 | > 100 | COc1ccc([N+](=O)[O-])c(S(=O)(=O)C2CCOC2C)n1 (stereo not shown) [Example 1] |
| 12.3 | 4 | 10.6 | 0.391 | 9.97 | > 100 | COc1ccc([N+](=O)[O-])c(S(=O)(=O)C2CCN(C(C)=O)CC2)n1 [Example 2, 1-(4-((6-methoxy-3-nitropyridin-2-yl)sulfonyl)piperidin-1-yl)ethan-1-one] |
| 5.08 | 4.34 | 6.11 | 0.0391 | 7.53 | > 100 | COc1ccc([N+](=O)[O-])c(S(=O)(=O)C2CCOCC2)n1 [Example 3, 6-methoxy-3-nitro-2-((tetrahydro-2H-pyran-4-yl)sulfonyl)pyridine] |
|  | 2.1 | 9.27 | 1.01 | 3.54 | > 100 | COc1ccc([N+](=O)[O-])c([S+]([O-])C2CCOC2C)n1 (stereo not shown) [Example 4, 6-Methoxy-2-(2-methyl-tetrahydro-furan-3-ylsulfinyl)-3-nitro-pyridine] |
|  | 2.4 |  | 4.33 | 3.57 | > 100 | COc1ccc([N+](=O)[O-])c([S+]([O-])C2CCOCC2)n1 (stereo not shown) [Example 5, 6-Methoxy-3-nitro-2-(tetrahydro-pyran-4-ylsulfinyl)-pyridine] |
|  | 5.58 |  | 4.06 | 11.6 | > 100 | COc1ccc([N+](=O)[O-])c([S+]([O-])C2CCN(C(C)=O)CC2)n1 (stereo not shown) [Example 6, 1-[4-(6-Methoxy-3-nitro-pyridin-2-ylsulfinyl)-piperidin-1-yl]-ethanone] |
